Source: ChEMBL document CHEMBL1201862, “PubChem BioAssay data set” (2004)
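The compound was tested at five concentrations on cells cultured in 96-well plates, with a 48-hour exposure period. The concentration for 50% growth inhibition is given as GI50.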 The source made the active and inactive calls. No stated cut-off is given here; in the data, active = GI50 up to about 1.1 µM and inactive = higher.

Tests used:
Test in all cases: NCI anticancer screen, dose series, 48 h
SK-MEL-28 = system: SK-MEL-28
OVCAR-5 = system: OVCAR-5
RXF 393 = system: RXF 393
Malme-3M = system: Malme-3M
IGROV-1 = system: IGROV-1
K562 = system: K562
786-0 = system: 786-0
CCRF-CEM = system: CCRF-CEM
OVCAR-3 = system: OVCAR-3
HL-60 = system: HL-60
NCI-H23 = system: NCI-H23
NCI-H460 = system: NCI-H460
SN12C = system: SN12C
HOP-62 = system: HOP-62
HCT-116 = system: HCT-116
SR = system: SR

Measured: GI50

CC1CC(c2cccc3c2OCO3)=Nc2ccccc2S1 (stereo unspecified)
inactive: SK-MEL-28 > 100 µM | OVCAR-5 > 100 µM | RXF 393 > 100 µM | Malme-3M > 100 µM | IGROV-1 > 100 µM | K562 > 100 µM | 786-0 > 100 µM | CCRF-CEM > 100 µM | OVCAR-3 > 100 µM | HL-60 > 100 µM | NCI-H23 > 100 µM | NCI-H460 > 100 µM | SN12C > 100 µM

CC(C)[C@@H](COC(C)(C)C)/N=C/N1CCc2c([nH]c3ccccc23)C1
inactive: SK-MEL-28 > 100 µM | OVCAR-5 > 100 µM | HOP-62 > 100 µM | RXF 393 > 100 µM | HCT-116 > 100 µM | IGROV-1 > 100 µM | K562 > 100 µM | 786-0 > 100 µM | CCRF-CEM > 100 µM | OVCAR-3 > 100 µM | HL-60 > 100 µM | NCI-H23 > 100 µM | NCI-H460 > 100 µM | SN12C > 100 µM

O=C(CC(CC(=O)Oc1c(Br)cc(Br)cc1C(=O)O)C(=O)Oc1c(Br)cc(Br)cc1C(=O)O)Oc1c(Br)cc(Br)cc1C(=O)O
inactive: SK-MEL-28 > 100 µM | OVCAR-5 45.1 µM | HOP-62 46.5 µM | Malme-3M 70.1 µM | HCT-116 43.6 µM | IGROV-1 29 µM | K562 41.4 µM | 786-0 > 100 µM | CCRF-CEM 41.6 µM | OVCAR-3 47.8 µM | HL-60 43.7 µM | NCI-H23 36.4 µM | NCI-H460 56.8 µM | SN12C 52.1 µM

CN(C)c1ccc(-c2nc(N)nc3c2CCCC3)cc1
inactive: SK-MEL-28 61.8 µM | OVCAR-5 > 100 µM | HOP-62 99.1 µM | RXF 393 34 µM | Malme-3M 46.1 µM | HCT-116 38.3 µM | IGROV-1 64.4 µM | K562 29.3 µM | 786-0 82 µM | CCRF-CEM 50.5 µM | OVCAR-3 23.4 µM | HL-60 29.3 µM | NCI-H23 64.7 µM | NCI-H460 65.2 µM | SN12C 37.9 µM

CC(=O)C1C(c2ccc(N(C)C)cc2)c2cc3c(cc2OC1(C)O)OCO3 (stereo unspecified)
inactive: SK-MEL-28 57.4 µM | HOP-62 > 100 µM | RXF 393 33.3 µM | Malme-3M 53 µM | HCT-116 39.8 µM | IGROV-1 77.8 µM | K562 24 µM | 786-0 36.7 µM | CCRF-CEM 32.5 µM | OVCAR-3 35 µM | HL-60 24.3 µM | NCI-H23 59 µM | NCI-H460 34.4 µM | SN12C 40.1 µM

COc1cccc(NC(=O)C(=O)C(C(C)=O)c2nc3ccc(Cl)cc3nc2O)c1 (stereo unspecified)
inactive: SK-MEL-28 > 100 µM | OVCAR-5 > 100 µM | HOP-62 > 100 µM | RXF 393 > 100 µM | Malme-3M > 100 µM | HCT-116 > 100 µM | IGROV-1 > 100 µM | K562 > 100 µM | 786-0 > 100 µM | CCRF-CEM > 100 µM | OVCAR-3 > 100 µM | HL-60 > 100 µM | NCI-H23 > 100 µM | NCI-H460 > 100 µM | SN12C > 100 µM

CC(=O)OCC1OC(n2cc(F)c(=O)[nH]c2=O)C(NC(=O)N(CCCl)N=O)C(OC(C)=O)C1OC(C)=O (stereo unspecified)
inactive: SK-MEL-28 > 100 µM | HOP-62 > 100 µM | Malme-3M > 100 µM | HCT-116 > 100 µM | IGROV-1 > 100 µM | K562 > 100 µM | 786-0 54.2 µM | CCRF-CEM > 100 µM | SR 97.9 µM | OVCAR-3 > 100 µM | HL-60 51.5 µM | NCI-H23 > 100 µM | NCI-H460 18.7 µM | SN12C > 100 µM

CS/C(=N/C#N)NCCc1c[nH]c2ccccc12
inactive: SK-MEL-28 > 100 µM | OVCAR-5 > 100 µM | HOP-62 > 100 µM | RXF 393 > 100 µM | HCT-116 > 100 µM | IGROV-1 > 100 µM | K562 67 µM | 786-0 45.6 µM | CCRF-CEM 48.2 µM | SR 60.3 µM | OVCAR-3 > 100 µM | HL-60 55.2 µM | NCI-H23 > 100 µM | NCI-H460 > 100 µM | SN12C > 100 µM

O=C(NC(=O)c1cn(CCN(CCO)C(=O)NCCCCCCNC(=O)N(CCO)CCn2cc(C(=O)NC(=O)OCc3ccccc3)c(=O)[nH]c2=O)c(=O)[nH]c1=O)OCc1ccccc1
inactive: SK-MEL-28 > 100 µM | OVCAR-5 > 100 µM | HOP-62 > 100 µM | RXF 393 > 100 µM | Malme-3M > 100 µM | HCT-116 > 100 µM | IGROV-1 > 100 µM | K562 > 100 µM | 786-0 > 100 µM | CCRF-CEM > 100 µM | OVCAR-3 > 100 µM | HL-60 > 100 µM | NCI-H23 > 100 µM | NCI-H460 > 100 µM | SN12C > 100 µM

Nc1ncnc2c1nnn2C1C=C(CO)C(O)C1O (stereo unspecified)
inactive: SK-MEL-28 65.3 µM | OVCAR-5 48.3 µM | HOP-62 > 92 µM | RXF 393 > 77.1 µM | Malme-3M > 100 µM | HCT-116 27.8 µM | IGROV-1 > 100 µM | K562 40.8 µM | 786-0 53.2 µM | CCRF-CEM 50.7 µM | OVCAR-3 > 100 µM | HL-60 12.1 µM | NCI-H23 > 78.9 µM | NCI-H460 40.8 µM | SN12C 33 µM

O=C1CCC(=O)c2sccc2N1
inactive: SK-MEL-28 > 100 µM | OVCAR-5 > 100 µM | HOP-62 > 100 µM | RXF 393 > 100 µM | Malme-3M > 100 µM | HCT-116 > 100 µM | IGROV-1 > 100 µM | K562 > 100 µM | 786-0 > 100 µM | CCRF-CEM > 100 µM | OVCAR-3 > 100 µM | HL-60 > 100 µM | NCI-H23 > 100 µM | NCI-H460 > 100 µM | SN12C > 100 µM

CCOc1ccc(NC(=O)C2=C(C)NC(C)=C(C(=O)Nc3ccc(OCC)cc3)C2c2ccccc2)cc1
inactive: SK-MEL-28 > 100 µM | OVCAR-5 > 100 µM | HOP-62 > 100 µM | RXF 393 > 100 µM | Malme-3M > 100 µM | IGROV-1 > 100 µM | K562 38.5 µM | 786-0 88.7 µM | CCRF-CEM 31.3 µM | OVCAR-3 > 100 µM | HL-60 29.9 µM | NCI-H23 > 100 µM | NCI-H460 > 100 µM | SN12C > 100 µM

O=C1C(Br)=C[C@H]2C3C=CC(Br)(C3=O)[C@@H]12 (stereo partly specified)
inactive: SK-MEL-28 12.6 µM | OVCAR-5 15.6 µM | HOP-62 35.6 µM | RXF 393 13.8 µM | Malme-3M 13.2 µM | HCT-116 10.9 µM | IGROV-1 9.62 µM | K562 7.62 µM | 786-0 14.7 µM | CCRF-CEM 2.59 µM | OVCAR-3 13.6 µM | HL-60 2.43 µM | NCI-H23 12.5 µM | SN12C 13.2 µM

O=S(O)CCCSSc1ccccc1
inactive: SK-MEL-28 54.6 µM | OVCAR-5 > 100 µM | HOP-62 57.7 µM | RXF 393 22.9 µM | Malme-3M 67 µM | HCT-116 37.7 µM | IGROV-1 14.7 µM | K562 38.1 µM | 786-0 66.8 µM | CCRF-CEM 7.67 µM | OVCAR-3 53.8 µM | NCI-H23 66.7 µM | NCI-H460 78.3 µM | SN12C 25.6 µM
